Results reported in US20240166626A1, “Compounds and Methods for Preventing, Treating, or Ameliorating Airway Disease” (THOMAS JEFFERSON UNIVERSITY, priority 2021, published 2024).

Biological target: FLAG-β2AR (Homo sapiens, UniProt P07550)
Assay: Receptor internalization, cell surface ELISA, HEK 293 FLAG-β2AR
Type: cell-based
Details: 10 μM DFPQ, ISO up to 60 min, FIG. 4A
Experimental: FIGS. 4A-4F: DFPQ inhibits internalization of the β2AR and protects from agonist induced desensitization in cell and tissue models. FIG. 4A: Effect of DFPQ on agonist-promoted internalization of the β2AR. […] Cells were fixed and receptor surface expression was measured by ELISA. […] Cells were lysed and cAMP production was measured by ELISA. […] FIG. 4C: […] Airway contractility was measured by luminal area of bronchioles by microscopy at various times. FIG. 4D: […] HASM cells were scratched and incubated overnight in PDGF containing serum free media. Cells were imaged to evaluate migration into the scratched area. […] Cells were read every three minutes for 18 minutes on a PolarStar Optima plate reader (BMG) to establish peak signal. […] Luminescence was determined at room temperature (23-25° C.) on a PolarStar Optima plate reader (BMG). […] Relative assay bias was calculated from the ratio of normalized cAMP and arrestin recruitment responses. […] BRET was measured using a Tecan Infinite F500 microplate reader. […] Bound [35 S]GTPγS was collected by rapid filtration on GF/B filters, washed 4 times with 4 ml of cold GTPγS wash buffer and analyzed by liquid scintillation counting. […] Immunoprecipitated proteins were separated by SDS-PAGE and analyzed by western blot using a β2AR C-terminal tail or phospho-specific antibody. […] Band intensity was measured by densitometry using ImageJ. […]

Sequence of FLAG-β2AR (P07550 whole entry): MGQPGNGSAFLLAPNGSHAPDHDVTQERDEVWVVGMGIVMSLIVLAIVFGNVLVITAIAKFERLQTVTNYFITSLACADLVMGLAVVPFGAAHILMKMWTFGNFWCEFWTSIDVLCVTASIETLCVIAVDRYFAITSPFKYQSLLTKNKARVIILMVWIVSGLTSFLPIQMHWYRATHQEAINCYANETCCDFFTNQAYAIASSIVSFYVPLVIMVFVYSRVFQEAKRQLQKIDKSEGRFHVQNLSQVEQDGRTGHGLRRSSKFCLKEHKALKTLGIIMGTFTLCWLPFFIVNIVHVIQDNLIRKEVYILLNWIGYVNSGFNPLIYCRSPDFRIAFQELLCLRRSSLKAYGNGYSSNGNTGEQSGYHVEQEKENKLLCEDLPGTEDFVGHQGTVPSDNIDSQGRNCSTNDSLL

## Fc1ccc(Nc2nc(NC3CCCCC3)c3ccccc3n2)cc1F [DFPQ, N^4-cyclohexyl-N^2-(3,4-difluorophenyl)quinazoline-2,4-diamine]
  agonist-induced internalization of the receptor: fully inhibited
